We go through seven molecules from the supplement of paper PMC11061612.

Assay [1] relates to NCI-H2731 (Mesothelioma). Briefly: combination Emax (second highest fraction inhibited in the dose matrix, 72 h); higher = more inhibition; extreme values may be limits of the assay. In outline: (§1)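 After 24 hours at 37°C and 5% CO2 in 1536-well plates, cells in DMEM/F12 or RPMI plus 10% FBS received two-drug dose matrices for 72 hours. Viability came from CellTiter-Glo 2.0 luminescence and was scaled as inhibition, anchored at 0 by vehicle wells and at 1 by blank wells. Combination Emax is taken as the second-highest inhibition in the matrix, and Bliss excess as the observed combination effect less EA + EB − EA·EB, with EA and EB the single-agent effects.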

The subject of assay [2] is MN-60 (B-Lymphoblastic Leukemia). The assay is described as follows: Bliss excess, mean over the matrix (fraction); higher = more synergy. The gist of the method:
as §1

The next assay relates to SJSA-1 (Osteosarcoma). The assay is described as above. In outline:
as §1

Assay [3] concerns CW-2 (Colorectal Carcinoma). The description is as above. The gist of the method:
as §1

The subject of assay [4] is NCCIT (Other Solid Carcinomas). Described as above. In outline: as §1
Assay [5] concerns KP-3 (Pancreatic Carcinoma). The assay is described as above. The gist of the method: as §1
Assay [6] deals with NCI-H929 (Plasma Cell Myeloma). The assay is described as above. In outline: as §1
For assay [7], the system named is OCI-AML3 (Acute Myeloid Leukemia). Described as above. The gist of the method:
as §1

The subject of assay [8] is NCI-H520 (Squamous Cell Lung Carcinoma). The assay is described as above. The gist of the method: as §1
Assay [9] has as its system NCI-H3122 (Lung Adenocarcinoma). Described as above. In outline:
as §1

Assay [10] relates to MOG-G-CCM (Low Grade Glioma). Described as above. In outline:
as §1

In assay [11] the test system is NCI-H2731 (Mesothelioma). The description is as above. In outline:
as §1

In assay [12] the test system is VMRC-RCZ (Kidney Carcinoma). The description is as above. The gist of the method: as §1
The subject of assay [13] is NCI-H526 (Small Cell Lung Carcinoma). The description is as above. In outline: as §1
Assay [14] has as its system DMS-114 (Small Cell Lung Carcinoma). The description is as above. The gist of the method: as §1
In assay [15] the test system is SK-GT-4 (Esophageal Adenocarcinoma). The description is as above. In outline:
as §1

The test system of a further assay is M059J (Glioblastoma). The assay is described as above. In outline:
as §1

In assay [16] the test system is KYSE-270 (Esophageal Squamous Cell Carcinoma). Described as above. The gist of the method:
as §1

Assay [17] concerns T-T (Esophageal Squamous Cell Carcinoma). Described as above. In outline:
as §1

For assay [18], the system named is KU812 (Chronic Myelogenous Leukemia). Described as above. In outline: as §1

As to `C[C@@H](Nc1cc(F)cc(F)c1)c1cc(C(=O)N(C)C)cc2c(=O)cc(N3CCOCC3)oc12` [AZD8186] + C1CN(CCC1(C(=O)N[C@@H](CCO)C2=CC=C(C=C2)Cl)N)C3=NC=NC4=C3C=CN4 [AZD5363] (first compound max 10 µM, 7x7, partner max 10 µM), the “combination Emax” value in the assay with NCI-H2731 (Mesothelioma) [1] is 0.305. The Bliss excess was -0.0655 in assay [2]; -0.0208 in the assay on SJSA-1 (Osteosarcoma); -0.0086 in [3]; 0.0368 in assay [4]; -0.0207 in assay [5]; -0.0035 in assay [6]. The Bliss excess in assay [7] is 0.031; in assay [8], -0.034; in assay [9], 0.0211; in assay [10], -0.058; in the assay on NCI-H2731 (Mesothelioma) [11], -0.0476; in assay [12], -0.0134. For the same molecule, the Bliss excess in assay [13] was -0.0238; in assay [14], 0.0545; in assay [15], -0.0478; with M059J (Glioblastoma) it was -0.0145; in [16], 0.0302; in assay [17], 0.0073. The Bliss excess in assay [18] is -0.053.
As to `CN(CCO)CC[C@H](CSc1ccccc1)Nc1ccc(S(=O)(=O)NC(=O)c2ccc(N3CCC([C@@H](O)c4ccccc4-c4ccc(Cl)cc4)CC3)cc2)cc1S(=O)(=O)C(F)(F)F` [AZD4320] + CC(=O)O[C@H]1C(=O)[C@@]2(C)[C@H]([C@H](OC(=O)c3ccccc3)[C@]3(O)C[C@H](OC(=O)[C@H](O)[C@@H](NC(=O)c4ccccc4)c4ccccc4)C(C)=C1C3(C)C)[C@]1(OC(C)=O)CO[C@@H]1C[C@@H]2O [Paclitaxel] (first compound max 1 µM, 7x7, partner max 3 µM), the “combination Emax” value in the assay on NCI-H2731 (Mesothelioma) [1] was 0.932. Also, the Bliss excess in [2] is 0.0332; in the assay with SJSA-1 (Osteosarcoma), 0.0637; in assay [3], -0.0328; in [4], 0.0317; in assay [5], 0.131; in assay [6] it was -0.0687. Further, the Bliss excess in [7] stood at 0.007; in assay [8], 0.0142; in assay [9], 0.0379; in assay [10], 0.0506; in the assay on NCI-H2731 (Mesothelioma) [11], 0.0876; in assay [12] it was 0.128. Further, the Bliss excess was 0.0193 in assay [13]; 0.0486 in [14]; 0.0543 in assay [15]; 0.0756 with M059J (Glioblastoma); 0.0171 in assay [16]; 0.0528 in assay [17]. Further, the Bliss excess in assay [18] is -0.0252.
Regarding `O=C(c1cc(Cc2n[nH]c(=O)c3ccccc23)ccc1F)N1CCN(C(=O)C2CC2)CC1` [Olaparib] + CN(CC[C@H](CSC1=CC=CC=C1)NC2=C(C=C(C=C2)S(=O)(=O)NC(=O)C3=CC=C(C=C3)N4CCC(CC4)[C@H](C5=CC=CC=C5C6=CC=C(C=C6)Cl)O)S(=O)(=O)C(F)(F)F)CCO [AZD4320] (first compound max 10 µM, 7x7, partner max 1 µM), the “combination Emax” value in the assay on NCI-H2731 (Mesothelioma) [1] amounted to 0.0908. The Bliss excess in assay [2] is -0.044; in the assay on SJSA-1 (Osteosarcoma) it was -0.0509; in assay [3] it was -0.0353; in assay [4], -0.0075; in assay [5] it was -0.0422; in [6] it was -0.0336. Besides, the Bliss excess in [7] was 0.057; in assay [8], -0.0283; in assay [9], -0.0184; in [10] it was -0.0282; in the assay with NCI-H2731 (Mesothelioma) [11], -0.0491; in assay [12], -0.064. Besides, the Bliss excess in assay [13] is 0.0311; in assay [14], -0.0971; in [15], -0.0508; in the assay on M059J (Glioblastoma) it was -0.0174; in assay [16] it was -0.0221; in [17] it was -0.0174. Besides, in assay [18], the Bliss excess is -0.0517.
Turning to `C=CCn1c(=O)c2cnc(Nc3ccc(N4CCN(C)CC4)cc3)nc2n1-c1cccc(C(C)(C)O)n1` [AZD1775] + CCc1c2c(nc3ccc(O)cc13)-c1cc3c(c(=O)n1C2)COC(=O)[C@]3(O)CC [SN-38] (first compound max 1 µM, partner max 0.3 µM), the “combination Emax” value in the assay on NCI-H2731 (Mesothelioma) [1] was 0.496. For the same molecule, the Bliss excess was -0.0244 in assay [2]; -0.0742 in the assay on SJSA-1 (Osteosarcoma); -0.0515 in assay [3]; -0.0342 in assay [4]; -0.067 in [5]; -0.0303 in assay [6]. The Bliss excess was -0.103 in assay [7]; -0.0637 in assay [8]; -0.0233 in [9]; -0.053 in assay [10]; -0.0744 in the assay on NCI-H2731 (Mesothelioma) [11]; -0.0623 in assay [12]. In addition, the Bliss excess in [13] is -0.0476; in assay [14] it was -0.0439; in assay [15] it was 0.0211; in the assay on M059J (Glioblastoma), 0.0051; in assay [16], 0.0029; in assay [17] it was -0.031. The Bliss excess in [18] was -0.0318.
`Cc1nc(-c2cn3c(n2)-c2ccc(-c4cnn(C(C)(C)C(N)=O)c4)cc2OCC3)n(C(C)C)n1` [Taselisib] + O=C(Nc1ccc2[nH]nc(-c3ccncc3)c2c1)[C@@H]1CCN(CC(=O)N2CCN(c3ccc(-c4ncccn4)cc3)CC2)C1 [SCH772984] (first compound max 10 µM, 7x7, partner max 5 µM): the “combination Emax” value in the assay with NCI-H2731 (Mesothelioma) [1] was determined as 0.553. Besides, the Bliss excess in [2] is -0.026; in the assay on SJSA-1 (Osteosarcoma) it was 0.0019; in assay [3], 0.0458; in [4], -0.032; in [5], 0.0368; in assay [6], 0.0344. The Bliss excess in assay [7] is 0.0661; in assay [8], 0.0461; in assay [9], 0.126; in assay [10], -0.0727; with NCI-H2731 (Mesothelioma) [11], 0.0323; in assay [12], 0.0004. Besides, the Bliss excess came to 0.0117 in assay [13]; 0.005 in assay [14]; 0.0428 in [15]; 0.0027 with M059J (Glioblastoma); 0.0577 in [16]; 0.133 in assay [17]. In addition, in assay [18], the Bliss excess was 0.0569.
Turning to `C[C@@H](Oc1cc(-c2cnn(C3CCNCC3)c2)cnc1N)c1c(Cl)ccc(F)c1Cl` [Crizotinib] + CC1=C(C(=CC=C1)Cl)NC(=O)C2=CN=C(S2)NC3=CC(=NC(=N3)C)N4CCN(CC4)CCO [Dasatinib] (first compound max 10 µM, 7x7, partner max 2 µM), the “combination Emax” value in the assay with NCI-H2731 (Mesothelioma) [1] was 0.888. Besides, the Bliss excess was -0.0074 in assay [2]; -0.0238 in the assay on SJSA-1 (Osteosarcoma); -0.0315 in assay [3]; -0.0416 in assay [4]; -0.057 in assay [5]; -0.0147 in assay [6]. For the same molecule, the Bliss excess in assay [7] is 0.0207; in assay [8], 0.0375; in assay [9] it was -0.0882; in assay [10], 0.0574; in the assay with NCI-H2731 (Mesothelioma) [11] it was 0.0443; in assay [12], 0.0518. For the same molecule, the Bliss excess in assay [13] was -0.0339; in assay [14] it was -0.0562; in assay [15], 0.0033; with M059J (Glioblastoma) it was 0.024; in assay [16], 0.0481; in assay [17], 0.0322. Also, the Bliss excess in assay [18] amounted to 0.0121.
For the molecule `Cc1cc2ncnn2cc1Nc1ncc2c(n1)n(C1CCOCC1)c(=O)n2C` [AZD7648] + COc1cc([C@@H]2c3cc4c(cc3[C@@H](O[C@@H]3O[C@@H]5CO[C@@H](C)O[C@H]5[C@H](O)[C@H]3O)[C@H]3COC(=O)[C@H]23)OCO4)cc(OC)c1O [Etoposide] (first compound max 10 µM, 7x7, partner max 10 µM), the “combination Emax” value in the assay with NCI-H2731 (Mesothelioma) [1] stood at 0.542. Further, the Bliss excess was 0.06 in [2]; 0.0316 with SJSA-1 (Osteosarcoma); 0.0573 in assay [3]; 0.0365 in assay [4]; -0.0136 in assay [5]; 0.033 in assay [6]. The Bliss excess came to 0.123 in [7]; 0.0639 in assay [8]; 0.0903 in [9]; 0.106 in assay [10]; 0.08 in the assay on NCI-H2731 (Mesothelioma) [11]; 0.0743 in assay [12]. Besides, the Bliss excess in assay [13] came out at 0.121; in assay [14] it was 0.0198; in [15] it was 0.0096; with M059J (Glioblastoma), 0.003; in [16], 0.0627; in [17] it was 0.0254. In addition, the Bliss excess in [18] was 0.035.
